Measurements from patent EP3263567A1, “CARBOXAMIDE-SUBSTITUTED PYRAZOLES AND TRI(HETERO)ARYL-PYRAZOLES FOR USE IN METHODS OF TREATING AND / OR PREVENTING CARDIOVASCULAR DISEASES AND / OR COMORBIDITIES THEREOF” (AiCuris Anti-infective Cures GmbH, priority 2016, dated 2018).
Blank lines part the entries; values can stand above or below the compound they belong to.

Assays:
human HCN4 currents = biological target: T1, human HCN4 currents (Homo sapiens, UniProt Q9Y3Q4); test: Whole-cell patch-clamp, HCN4 steady state currents in transiently transfected CHO cells; format: cell-based; settings: for IC50: CHO cells transiently expressing HCN4, steady state current at -120 mV, n=3, read-out: IC50 (inhibition of HCN4 currents); for inhibition of the HCN4 current (result in words): tested first at 10 µM
T1 construct: CHO cells transiently expressing the HCN4 channel; expressed in transfected cells; host or cells: CHO (ATCC CCL-61), transiently transfected
T1 sequence (Q9Y3Q4 1-1203): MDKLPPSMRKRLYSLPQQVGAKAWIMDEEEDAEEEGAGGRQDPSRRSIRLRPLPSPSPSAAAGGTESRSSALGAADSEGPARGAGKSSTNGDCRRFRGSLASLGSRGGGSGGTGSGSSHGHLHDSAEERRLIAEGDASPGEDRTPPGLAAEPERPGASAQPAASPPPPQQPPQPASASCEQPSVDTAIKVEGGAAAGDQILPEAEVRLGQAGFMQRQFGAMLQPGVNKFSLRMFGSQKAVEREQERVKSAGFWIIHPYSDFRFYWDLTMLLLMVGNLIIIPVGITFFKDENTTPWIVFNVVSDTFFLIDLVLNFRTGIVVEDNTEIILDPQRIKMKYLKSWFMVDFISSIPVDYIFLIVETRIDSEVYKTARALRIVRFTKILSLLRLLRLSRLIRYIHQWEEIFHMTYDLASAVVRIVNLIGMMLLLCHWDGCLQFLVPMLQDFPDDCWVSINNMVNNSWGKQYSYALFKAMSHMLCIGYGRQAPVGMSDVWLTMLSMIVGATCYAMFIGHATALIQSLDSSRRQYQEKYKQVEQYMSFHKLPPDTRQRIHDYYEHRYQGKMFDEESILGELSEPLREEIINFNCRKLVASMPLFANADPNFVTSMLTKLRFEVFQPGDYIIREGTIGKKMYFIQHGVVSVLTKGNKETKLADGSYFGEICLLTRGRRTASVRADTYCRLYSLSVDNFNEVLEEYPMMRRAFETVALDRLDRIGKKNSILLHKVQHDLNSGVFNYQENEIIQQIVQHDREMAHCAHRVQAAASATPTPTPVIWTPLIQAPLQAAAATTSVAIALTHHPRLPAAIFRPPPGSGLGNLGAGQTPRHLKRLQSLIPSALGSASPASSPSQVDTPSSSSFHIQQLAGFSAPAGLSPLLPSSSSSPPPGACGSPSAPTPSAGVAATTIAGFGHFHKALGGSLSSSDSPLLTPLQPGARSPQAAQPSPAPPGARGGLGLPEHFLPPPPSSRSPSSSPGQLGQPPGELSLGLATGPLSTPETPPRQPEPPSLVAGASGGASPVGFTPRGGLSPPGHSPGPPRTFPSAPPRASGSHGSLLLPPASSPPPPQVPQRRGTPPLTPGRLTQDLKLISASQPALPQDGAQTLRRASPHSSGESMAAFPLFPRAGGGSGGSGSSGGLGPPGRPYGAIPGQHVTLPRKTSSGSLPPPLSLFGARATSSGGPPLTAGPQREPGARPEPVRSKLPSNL
Excerpt: The following six compounds in accordance with the invention: • Compound A: [drawing 81] i.e. 4-[5-[3-Chloro-5-(trifluoromethoxy) phenyl]-1-(pyridin-3-yl)-1H-pyrazol-3-yl]-5,6-dihydro-7H-pyrrolo[3,4-d]pyrimidin-7-one, • Compound B: [drawing 82] i.e. 4-[5-[3-Chloro-5-(trifluoromethoxy) phenyl]-1-(pyridin-3-yl)-1H-pyrazol-3-yl]-2,3-dihydro-1H-pyrrolo[3,4-c] pyridin-1-one, • Compound C: [drawing 83] i.e. 4-[5-[3-Chloro-5-(trifluoromethoxy) phenyl]-1-(pyridin-3-yl)-1H-pyrazol-3-yl]-5,6-dihydro-2-methyl-7H-pyrrolo[3, 4-d] pyrimidin-7-one, • Compound D: [drawing 84] i.e. 3-Amino-4-[5-[3-chloro-5-(trifluoromethoxy) phenyl]-1-(pyridin-3-yl)-1H-pyrazol-3-yl-carbonyl]-1,5-dihydro-2H-pyrrol-2-one, • Compound E: [drawing 85] i.e. 1-[[5-[3-Chloro-5-(trifluoromethoxy) phenyl]-1-(pyridin-3-yl)-1H-pyrazol-3-yl]carbonyl]-imidazolidin-4-one, • Compound F: [drawing 86] i.e. 4-[5-[3-Chloro-5-(trifluoromethoxy) phenyl]-1-(3-cyano-4-fluoro-phenyl)-1H-pyrazol-3-yl]-5,6-dihydro-7H-pyrrolo[3,4-d]pyrimidin-7-one, were tested on their effects on human HCN4 currents recorded from transiently transfected CHO cells, in direct comparison to the reference compounds described below: • Ivabradine: [drawing 87] i.e. ((S)-3-{3-[([3,4-Dimethoxy-bicyclo [4.2.0]octa-1,3,5-trien-7-yl]methyl)methylamino]propyl}-1,3,4,5-tetrahydro-7,8-dimethoxy-2H-3-benzazepin-2-on), • Compound X: [drawing 88] i.e. 1-[[1-(3-Chloro-4-fluorophenyl)-5-(3-chloro-5-fluorophenyl)-1 H-pyrazol-3-yl]carbonyl]-imidazolidin-4-one, • Compound Y: [drawing 89] i.e. N-(2-Amino-2-oxoethyl)-1-(3-chloro-4-fluorophenyl)-5-(3-chloro-5-fluorophenyl)-1H-pyrazole-3-carboxamide.
The pyrazole compounds X and Y as depicted above, and having structural similarities to the compounds of general formula (I) of the invention, were also tested to investigate whether the pure If current inhibitory effect of the compounds of the invention also extend to structurally closely related compounds.
Dependent on their solubility in the assay buffer, the compounds were tested first at one concentration of 10 µM (compound A, compound Y, compound X, compound B, compound E, compound F and ivabradine) or 1 µM for (compound C and D). If the current blocking of HCN4 at this concentration was higher than 50% the compounds were tested again at five concentrations of a half-logarithmic dilution series starting with either 10 µM or 1 µM as mentioned above (meaning 0.1 µM, 0.3 µM, 1 µM, 3 µM, and 10 µM or 0.01 µM, 0.03 µM 0.1 µM, 0.3 µM and 1 µM).
Test system: CHO cells transiently expressing the HCN4 channel; NCBI Reference Sequence: NP005468.1 (HCN4 channel); Source CHO: ATCC, CCL-61 LGC Standards GmbH, Wesel, Germany were used.
In 35 mm culture dishes CHO cells were seeded at a density allowing single cells to be recorded on the dish holder of the microscope and continuously perfused (at approximately 1 mL/min) with the bath solution described above. All solutions applied to cells including the pipette solution were maintained at room temperature (19 °C - 30 °C). After formation of a Gigaohm seal between the patch electrodes and individual cells (pipette resistance range: 2.0 MΩ - 7.0 MΩ; seal resistance range: > 1 GΩ) the cell membrane across the pipette tip was ruptured to assure electrical access to the cell interior (whole-cell patch-configuration). As soon as a stable seal was established, steady state currents were measured upon the hyperpolarization to -120 mV (2000 ms) from a holding potential of -40 mV. This voltage protocol (as shown in the scheme below) did run 5 times for control conditions and at least ten times for each test concentration. Pulse intervals were 20 s (0.05 Hz). If current amplitude was judged to be too low for measurement, another cell was recorded.
Once control recordings have been accomplished, cells were continuously perfused with bath solution containing the tested compounds as detailed above, 0.1 % DMSO or 100 µM ZD7288. […]

HCN4 = biological target: T2, HCN4 (Homo sapiens, UniProt Q9Y3Q4); settings: literature value, Stieber et al. (2006) Mol Pharmacol 69, 1328-1337; read-out: IC50 mean (block of HCN4 channels); cited from earlier work
T2 sequence (Q9Y3Q4 1-1203): T1 sequence (Q9Y3Q4 1-1203)

in vivo = settings: dog, po, 30 mg/kg
Description: (§1) A single oral dose of 30 or 100 mg/kg was applied to dogs. Pharmacokinetic parameters were assessed and compared.
Male and female Beagle dogs.
(§2) Plasma concentrations were obtained by LC-MS/MS measurements.

[1] = Pharmacokinetics after single oral administration of formulations to dogs; settings: 30 mg/kg single oral dose
Description: as §1
Male and female Beagle dogs.
as §2

SMILES: NC(=O)CNC(=O)c1cc(-c2cc(F)cc(Cl)c2)n(-c2ccc(F)c(Cl)c2)n1 [Compound Y, N-(2-Amino-2-oxoethyl)-1-(3-chloro-4-fluorophenyl)-5-(3-chloro-5-fluorophenyl)-1H-pyrazole-3-carboxamide, reference compound]
inhibition of the HCN4 current (result in words) (human HCN4 currents): not identified as inhibitors of the HCN4 current

SMILES: O=C1CN(C(=O)c2cc(-c3cc(F)cc(Cl)c3)n(-c3ccc(F)c(Cl)c3)n2)CN1 [Compound X, 1-[[1-(3-Chloro-4-fluorophenyl)-5-(3-chloro-5-fluorophenyl)-1 H-pyrazol-3-yl]carbonyl]-imidazolidin-4-one, reference compound]
inhibition of the HCN4 current (result in words) (human HCN4 currents): not identified as inhibitors of the HCN4 current

SMILES: O=C1NCc2c1ncnc2-c1cc(-c2cc(Cl)cc(OC(F)(F)F)c2)n(-c2cccnc2)n1 [ethane sulfonate]
AUC(0-inf) (in vivo): 218 µg·h/mL
vomiting [1]: two to three out of four animals

SMILES: N#Cc1cc(-n2nc(-c3ncnc4c3CNC4=O)cc2-c2cc(Cl)cc(OC(F)(F)F)c2)ccc1F [Compound F, 4-[5-[3-Chloro-5-(trifluoromethoxy)phenyl]-1-(3-cyano-4-fluoro-phenyl)-1H-pyrazol-3-yl]-5,6-dihydro-7H-pyrrolo[3,4-d]pyrimidin-7-one]
IC50 (human HCN4 currents): 30 to 580 nM

SMILES: O=C1NCc2c1ccnc2-c1cc(-c2cc(Cl)cc(OC(F)(F)F)c2)n(-c2cccnc2)n1 [Compound B, 4-[5-[3-Chloro-5-(trifluoromethoxy)phenyl]-1-(pyridin-3-yl)-1H-pyrazol-3-yl]-2,3-dihydro-1H-pyrrolo[3,4-c] pyridin-1-one]
block of HCN4 currents at a single concentration (human HCN4 currents; 0.1 µM): almost completely
IC50 (human HCN4 currents): 30 to 580 nM

Continued, in another order:

IC50 (human HCN4 currents): 30 to 580 nM
SMILES: NC1=C(C(=O)c2cc(-c3cc(Cl)cc(OC(F)(F)F)c3)n(-c3cccnc3)n2)CNC1=O [Compound D, 3-Amino-4-[5-[3-chloro-5-(trifluoromethoxy)phenyl]-1-(pyridin-3-yl)-1H-pyrazol-3-yl-carbonyl]-1,5-dihydro-2H-pyrrol-2-one]

IC50 (human HCN4 currents): 4460 nM
SMILES: COc1cc2c(cc1OC)CC(=O)N(CCCN(C)C[C@H]1Cc3cc(OC)c(OC)cc31)CC2 [Ivabradine, (S)-3-{3-[([3,4-Dimethoxy-bicyclo [4.2.0]octa-1,3,5-trien-7-yl]methyl)methylamino]propyl}-1,3,4,5-tetrahydro-7,8-dimethoxy-2H-3-benzazepin-2-on, reference compound]
IC50 (HCN4): ~2150 nM

relative steady state current (HCN4) (human HCN4 currents; 100 µM, mean ± SEM of n=3 cells): 12.89 ± 1.19%
SMILES: CCN(c1ccccc1)c1cc(NC)[n+](C)c(C)n1 [ZD7288, reference compound]

IC50 (human HCN4 currents): 30 to 580 nM
SMILES: O=C1CN(C(=O)c2cc(-c3cc(Cl)cc(OC(F)(F)F)c3)n(-c3cccnc3)n2)CN1 [Compound E, 1-[[5-[3-Chloro-5-(trifluoromethoxy)phenyl]-1-(pyridin-3-yl)-1H-pyrazol-3-yl]carbonyl]-imidazolidin-4-one]

IC50 (human HCN4 currents): 30 to 580 nM
SMILES: Cc1nc2c(c(-c3cc(-c4cc(Cl)cc(OC(F)(F)F)c4)n(-c4cccnc4)n3)n1)CNC2=O [Compound C, 4-[5-[3-Chloro-5-(trifluoromethoxy)phenyl]-1-(pyridin-3-yl)-1H-pyrazol-3-yl]-5,6-dihydro-2-methyl-7H-pyrrolo[3,4-d] pyrimidin-7-one]
